Columns and labels:
CAT-TAG in CHO cells = experiment: CAT-TAG expression in transfected CHO cells (FAST CAT assay); type: cell-based; conditions: cells with O-RS/O-tRNA and CAT-TAG, grown in the presence of dansyl-alanine
Description: We first redesigned the suppressor O-tRNA gene to make it suitable for expression in mammalian cells by altering the 5′ UTR, mutating the promoter regions and generating a tandem repeat, thereby forming SEQ ID NO:6, and subcloned the O-RS gene (SEQ ID NO:12) into a mammalian expression vector. We transformed CHO cells with the plasmids encoding the modified O-RS/O-tRNA genes and a marker gene, Chloramphenicol Acetyltransferase (“CAT”), containing a nonsense TAG codon (“CAT-TAG”). Expression of CAT-TAG was assessed using a fluorescent-based assay (FAST CAT, Invitrogen, Inc.) that measures the conversion of chloramphenicol-BODIPY (FL-CM) to 3-acetyl-chloramphenicol-BODIPY (FL-AcCM) by thin layer chromatography. […] As a positive control, cells were transfected with wildtype CAT cDNA.

yeast strain MaV203 = experiment: Rescue of GAL4 (TAG) expression by DANSYL-O-RS/O-tRNA pair, growth in the absence of uracil; type: cell-based; conditions: MaV203 with DANSYL-O-RS, suppressor O-tRNA and GAL4 TAG
Description: The yeast strain MaV203 was transfected with plasmids coding for the DANSYL-O-RS (SEQ ID NO:12, derived from E. coli), suppressor O-tRNA (SEQ ID NO:5 derived from E. coli) and a marker gene, GAL4, containing nonsense TAG codons. Yeast harboring a functional DANSYL-RSOR and suppressor tRNA OR will “rescue” expression of GAL4. The MAV203 yeast strain contains the URA3 gene (required for uracil biosynthesis) under control of the GAL4 promoter. When grown in the absence of uracil, MAV203 yeast will not grow unless “rescue” of GAL4 expression occurs.

SMILES: CN(C)c1cccc2c(S(=O)(=O)NC[C@H](N)C(=O)O)cccc12
- CAT activity of transfected CHO cells (CAT-TAG in CHO cells): expressed significant CAT activity
- growth of transformed yeast in the absence of uracil (yeast strain MaV203): Growth was only observed when the transformed yeast were grown in the presence of dansyl-alanine

— patent US20090081669A1 (ENCODE BIO, INC., priority 2006, published 2009)
